Laboratory results as given in patent US20220389061A1, “IMMUNOMODULATORS” (priority 2019, published 2022).
Starred links: 1 amine or outer side, 2 acyl side, 3 side chain; linkers in the order of their positions; H or OH if unused. Positions of bridges follow the written chain, without caps; N, C: chain ends. Non-standard residues stand in square brackets, D forms with d. Residues, ends and D or L forms follow the SMILES beside them. Groups on a side chain read outwards from the residue. *: point of attachment. Trp(1-CH2COOH) = N[C@@H](Cc1cn(CC(=O)O)c2ccccc12)C(=O)O; NH(1-naphthyl) = c1ccc2c(N*)cccc2c1; X49 = N#Cc1ccccc1NC(=N)c1ccccc1N*; Hyp = O=C(O)[C@@H]1C[C@@H](O)CN1; X14 = Cc1c[nH]c2c(NC(=S)*)cccc12; X11 = S=C(Nc1ccccc1-c1ccccc1)*; X28 = Cc1ccc(Cl)c(NC(=S)*)c1Cl; NMeNle = CCCC[C@H](NC)C(=O)O; X9 = Fc1ccc(NC(=S)*)c(Cl)c1; X2 = c1ccc(-c2ccccc2N*)cc1; X52 = c1ccc2c(N*)c[nH]c2c1; X64 = COc1cc(OC)c(N*)cc1Cl; X86 = CCOc1ccc(NC(=S)*)cc1; X6 = CCCCCCCOc1ccc(N*)cc1; 4Abz = Nc1ccc(C(=O)O)cc1; NMeA = CN[C@@H](C)C(=O)O; Dab = NCC[C@H](N)C(=O)O; Dap = NC[C@H](N)C(=O)O; CO = O=C([*:1])[*:2]

These compounds were tested against T1, PD-1/PD-L1 (Homo sapiens, UniProt Q9NZQ7) (assay: PD-1/PD-L1 Homogenous Time-Resolved Fluorescence (HTRF) binding assay). Details: not given.
T1 construct: TVMV protease site linker (C); made in house; host or cells: HEK293T cells
T1 sequence (Q9NZQ7 18-239): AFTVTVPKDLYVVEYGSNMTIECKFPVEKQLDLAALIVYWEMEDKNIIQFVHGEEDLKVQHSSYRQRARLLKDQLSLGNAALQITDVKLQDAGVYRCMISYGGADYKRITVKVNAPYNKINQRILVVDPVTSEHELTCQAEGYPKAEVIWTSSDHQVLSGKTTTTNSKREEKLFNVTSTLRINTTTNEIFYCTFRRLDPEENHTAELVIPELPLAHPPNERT
In short: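 Compounds preincubated 15 min with PD-L1-His (10 nM final), then PD-1-Ig (20 nM final) added for 15 min in dPBS with 0.1% BSA, 0.05% Tween-20. Detection by Eu-cryptate anti-Ig (1 nM) and APC anti-His (20 nM) HTRF.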

SMILES	IC50 [nM]
CCCC[C@H]1C(=O)N(C)[C@@H](CCCC)C(=O)N[C@@H](CC(C)C)C(=O)N[C@H](C(=O)NCC(N)=O)CSCC(=O)N[C@@H](Cc2ccc(O)cc2)C(=O)N(C)[C@@H](C)C(=O)N[C@@H](CC(N)=O)C(=O)N2CCC[C@H]2C(=O)N[C@@H](CNC(=O)Nc2cccc3ccccc23)C(=O)N[C@@H](CC(C)C)C(=O)N2C[C@H](O)C[C@H]2C(=O)N[C@@H](Cc2c[nH]c3ccccc23)C(=O)N[C@@H](CCNC(=O)Nc2cccc3ccccc23)C(=O)N[C@@H](Cc2cn(CC(=O)O)c3ccccc23)C(=O)N1C [Example 3005] ({CH2CO}-Y[NMeA]NP[Dap]([CO-NH(1-naphthyl)])L[Hyp]W[Dab]([CO-NH(1-naphthyl)])[Trp(1-CH2COOH)][NMeNle][NMeNle]LCG-NH2; thioether N-14)	3.2

Same assay, conditions: PD-L1-His 10 nM pre-incubated with inhibitor, PD-1-Ig 20 nM; read-out: HTRF IC50

SMILES	IC50 [nM]
CCCCCCCOc1ccc(NC(=O)NC[C@@H]2NC(=O)[C@@H]3CCCN3C(=O)[C@H](CC(N)=O)NC(=O)[C@H](C)N(C)C(=O)[C@H](Cc3ccc(O)cc3)NC(=O)CSC[C@@H](C(=O)NCC(N)=O)NC(=O)[C@H](CC(C)C)NC(=O)[C@H](CCCC)N(C)C(=O)[C@H](CCCC)N(C)C(=O)[C@H](Cc3cn(CC(=O)O)c4ccccc34)NC(=O)[C@H](CCN)NC(=O)[C@H](Cc3c[nH]c4ccccc34)NC(=O)[C@@H]3C[C@@H](O)CN3C(=O)[C@H](CC(C)C)NC2=O)cc1 [Example 1099] ({CH2CO}-Y[NMeA]NP[Dap]([CO-X6])L[Hyp]W[Dab][Trp(1-CH2COOH)][NMeNle][NMeNle]LCG-NH2; thioether N-14)	2.6
CCCC[C@H]1C(=O)N(C)[C@@H](CCCC)C(=O)N[C@@H](CC(C)C)C(=O)N[C@H](C(=O)NCC(N)=O)CSCC(=O)N[C@@H](Cc2ccc(O)cc2)C(=O)N(C)[C@@H](C)C(=O)N[C@@H](CC(N)=O)C(=O)N2CCC[C@H]2C(=O)N[C@@H](CNC(=O)Nc2ccc(C(=O)OCC)cc2)C(=O)N[C@@H](CC(C)C)C(=O)N2C[C@H](O)C[C@H]2C(=O)N[C@@H](Cc2c[nH]c3ccccc23)C(=O)N[C@@H](CCN)C(=O)N[C@@H](Cc2cn(CC(=O)O)c3ccccc23)C(=O)N1C [Example 1069] ({CH2CO}-Y[NMeA]NP[Dap]([CO-4Abz-OEt])L[Hyp]W[Dab][Trp(1-CH2COOH)][NMeNle][NMeNle]LCG-NH2; thioether N-14)	0.4
CCCC[C@H]1C(=O)N(C)[C@@H](CCCC)C(=O)N[C@@H](CC(C)C)C(=O)N[C@H](C(=O)NCC(N)=O)CSCC(=O)N[C@@H](Cc2ccc(O)cc2)C(=O)N(C)[C@@H](C)C(=O)N[C@@H](CC(N)=O)C(=O)N2CCC[C@H]2C(=O)N[C@@H](CNC(=S)Nc2ccc(OCC)cc2)C(=O)N[C@@H](CC(C)C)C(=O)N2C[C@H](O)C[C@H]2C(=O)N[C@@H](Cc2c[nH]c3ccccc23)C(=O)N[C@@H](CCNC(=S)Nc2ccc(OCC)cc2)C(=O)N[C@@H](Cc2cn(CC(=O)O)c3ccccc23)C(=O)N1C [Example 1027] ({CH2CO}-Y[NMeA]NP[Dap](X86)L[Hyp]W[Dab](X86)[Trp(1-CH2COOH)][NMeNle][NMeNle]LCG-NH2; thioether N-14)	3.7
CCCC[C@H]1C(=O)N(C)[C@@H](CCCC)C(=O)N[C@@H](CC(C)C)C(=O)N[C@H](C(=O)NCC(N)=O)CSCC(=O)N[C@@H](Cc2ccc(O)cc2)C(=O)N(C)[C@@H](C)C(=O)N[C@@H](CC(N)=O)C(=O)N2CCC[C@H]2C(=O)N[C@@H](CNC(=S)Nc2ccc(F)cc2Cl)C(=O)N[C@@H](CC(C)C)C(=O)N2C[C@H](O)C[C@H]2C(=O)N[C@@H](Cc2c[nH]c3ccccc23)C(=O)N[C@@H](CCNC(=S)Nc2ccc(F)cc2Cl)C(=O)N[C@@H](Cc2cn(CC(=O)O)c3ccccc23)C(=O)N1C [Example 1031] ({CH2CO}-Y[NMeA]NP[Dap](X9)L[Hyp]W[Dab](X9)[Trp(1-CH2COOH)][NMeNle][NMeNle]LCG-NH2; thioether N-14)	2.8

Results, then the compound that gave them:

IC50 [nM]	SMILES
9.3	CCCC[C@H]1C(=O)N(C)[C@@H](CCCC)C(=O)N[C@@H](CC(C)C)C(=O)N[C@H](C(=O)NCC(N)=O)CSCC(=O)N[C@@H](Cc2ccc(O)cc2)C(=O)N(C)[C@@H](C)C(=O)N[C@@H](CC(N)=O)C(=O)N2CCC[C@H]2C(=O)N[C@@H](CNC(=S)Nc2c(Cl)ccc(C)c2Cl)C(=O)N[C@@H](CC(C)C)C(=O)N2C[C@H](O)C[C@H]2C(=O)N[C@@H](Cc2c[nH]c3ccccc23)C(=O)N[C@@H](CCNC(=S)Nc2c(Cl)ccc(C)c2Cl)C(=O)N[C@@H](Cc2cn(CC(=O)O)c3ccccc23)C(=O)N1C [Example 1113] ({CH2CO}-Y[NMeA]NP[Dap](X28)L[Hyp]W[Dab](X28)[Trp(1-CH2COOH)][NMeNle][NMeNle]LCG-NH2; thioether N-14)
0.3	CCCC[C@H]1C(=O)N(C)[C@@H](CCCC)C(=O)N[C@@H](CC(C)C)C(=O)N[C@H](C(=O)NCC(N)=O)CSCC(=O)N[C@@H](Cc2ccc(O)cc2)C(=O)N(C)[C@@H](C)C(=O)N[C@@H](CC(N)=O)C(=O)N2CCC[C@H]2C(=O)N[C@@H](CNC(=O)Nc2c[nH]c3ccccc23)C(=O)N[C@@H](CC(C)C)C(=O)N2C[C@H](O)C[C@H]2C(=O)N[C@@H](Cc2c[nH]c3ccccc23)C(=O)N[C@@H](CCN)C(=O)N[C@@H](Cc2cn(CC(=O)O)c3ccccc23)C(=O)N1C [Example 3041] ({CH2CO}-Y[NMeA]NP[Dap]([CO-X52])L[Hyp]W[Dab][Trp(1-CH2COOH)][NMeNle][NMeNle]LCG-NH2; thioether N-14)
2.5	CCCC[C@H]1C(=O)N(C)[C@@H](CCCC)C(=O)N[C@@H](CC(C)C)C(=O)N[C@H](C(=O)NCC(N)=O)CSCC(=O)N[C@@H](Cc2ccc(O)cc2)C(=O)N(C)[C@@H](C)C(=O)N[C@@H](CC(N)=O)C(=O)N2CCC[C@H]2C(=O)N[C@@H](CNC(=S)Nc2cccc3c(C)c[nH]c23)C(=O)N[C@@H](CC(C)C)C(=O)N2C[C@H](O)C[C@H]2C(=O)N[C@@H](Cc2c[nH]c3ccccc23)C(=O)N[C@@H](CCN)C(=O)N[C@@H](Cc2cn(CC(=O)O)c3ccccc23)C(=O)N1C [Example 3020] ({CH2CO}-Y[NMeA]NP[Dap](X14)L[Hyp]W[Dab][Trp(1-CH2COOH)][NMeNle][NMeNle]LCG-NH2; thioether N-14)
1.5	CCCC[C@H]1C(=O)N(C)[C@@H](CCCC)C(=O)N[C@@H](CC(C)C)C(=O)N[C@H](C(=O)NCC(N)=O)CSCC(=O)N[C@@H](Cc2ccc(O)cc2)C(=O)N(C)[C@@H](C)C(=O)N[C@@H](CC(N)=O)C(=O)N2CCC[C@H]2C(=O)N[C@@H](CNC(=O)Nc2cc(Cl)c(OC)cc2OC)C(=O)N[C@@H](CC(C)C)C(=O)N2C[C@H](O)C[C@H]2C(=O)N[C@@H](Cc2c[nH]c3ccccc23)C(=O)N[C@@H](CCNC(=O)Nc2cc(Cl)c(OC)cc2OC)C(=O)N[C@@H](Cc2cn(CC(=O)O)c3ccccc23)C(=O)N1C [Example 1082] ({CH2CO}-Y[NMeA]NP[Dap]([CO-X64])L[Hyp]W[Dab]([CO-X64])[Trp(1-CH2COOH)][NMeNle][NMeNle]LCG-NH2; thioether N-14)
5.7	CCCC[C@H]1C(=O)N(C)[C@@H](CCCC)C(=O)N[C@@H](CC(C)C)C(=O)N[C@H](C(=O)NCC(N)=O)CSCC(=O)N[C@@H](Cc2ccc(O)cc2)C(=O)N(C)[C@@H](C)C(=O)N[C@@H](CC(N)=O)C(=O)N2CCC[C@H]2C(=O)N[C@@H](CNC(=O)Nc2ccccc2C(=N)Nc2ccccc2C#N)C(=O)N[C@@H](CC(C)C)C(=O)N2C[C@H](O)C[C@H]2C(=O)N[C@@H](Cc2c[nH]c3ccccc23)C(=O)N[C@@H](CCN)C(=O)N[C@@H](Cc2cn(CC(=O)O)c3ccccc23)C(=O)N1C [Example 1097] ({CH2CO}-Y[NMeA]NP[Dap]([CO-X49])L[Hyp]W[Dab][Trp(1-CH2COOH)][NMeNle][NMeNle]LCG-NH2; thioether N-14)
2.9	CCCC[C@H]1C(=O)N(C)[C@@H](CCCC)C(=O)N[C@@H](CC(C)C)C(=O)N[C@H](C(=O)NCC(N)=O)CSCC(=O)N[C@@H](Cc2ccc(O)cc2)C(=O)N(C)[C@@H](C)C(=O)N[C@@H](CC(N)=O)C(=O)N2CCC[C@H]2C(=O)N[C@@H](CNC(=S)Nc2cccc3c(C)c[nH]c23)C(=O)N[C@@H](CC(C)C)C(=O)N2C[C@H](O)C[C@H]2C(=O)N[C@@H](Cc2c[nH]c3ccccc23)C(=O)N[C@@H](CCNC(=S)Nc2cccc3c(C)c[nH]c23)C(=O)N[C@@H](Cc2cn(CC(=O)O)c3ccccc23)C(=O)N1C [Example 3025] ({CH2CO}-Y[NMeA]NP[Dap](X14)L[Hyp]W[Dab](X14)[Trp(1-CH2COOH)][NMeNle][NMeNle]LCG-NH2; thioether N-14)
3.8	CCCC[C@H]1C(=O)N(C)[C@@H](CCCC)C(=O)N[C@@H](CC(C)C)C(=O)N[C@H](C(=O)NCC(N)=O)CSCC(=O)N[C@@H](Cc2ccc(O)cc2)C(=O)N(C)[C@@H](C)C(=O)N[C@@H](CC(N)=O)C(=O)N2CCC[C@H]2C(=O)N[C@@H](CNC(=S)Nc2ccccc2-c2ccccc2)C(=O)N[C@@H](CC(C)C)C(=O)N2C[C@H](O)C[C@H]2C(=O)N[C@@H](Cc2c[nH]c3ccccc23)C(=O)N[C@@H](CCN)C(=O)N[C@@H](Cc2cn(CC(=O)O)c3ccccc23)C(=O)N1C [Example 1085] ({CH2CO}-Y[NMeA]NP[Dap](X11)L[Hyp]W[Dab][Trp(1-CH2COOH)][NMeNle][NMeNle]LCG-NH2; thioether N-14)

Same assay, conditions: read-out: HTRF IC50; PD-L1-His 10 nM pre-incubated with inhibitor, PD-1-Ig 20 nM

SMILES	IC50 [nM]
CCCC[C@H]1C(=O)N(C)[C@@H](CCCC)C(=O)N[C@@H](CC(C)C)C(=O)N[C@H](C(=O)NCC(N)=O)CSCC(=O)N[C@@H](Cc2ccc(O)cc2)C(=O)N(C)[C@@H](C)C(=O)N[C@@H](CC(N)=O)C(=O)N2CCC[C@H]2C(=O)N[C@@H](CNC(=O)Nc2ccccc2-c2ccccc2)C(=O)N[C@@H](CC(C)C)C(=O)N2C[C@H](O)C[C@H]2C(=O)N[C@@H](Cc2c[nH]c3ccccc23)C(=O)N[C@@H](CCNC(=O)Nc2ccccc2-c2ccccc2)C(=O)N[C@@H](Cc2cn(CC(=O)O)c3ccccc23)C(=O)N1C [Example 1014] ({CH2CO}-Y[NMeA]NP[Dap]([CO-X2])L[Hyp]W[Dab]([CO-X2])[Trp(1-CH2COOH)][NMeNle][NMeNle]LCG-NH2; thioether N-14)	0.7
